Columns and labels:
HL60 MDR tumor = assay: tumor volume of HL60 MDR tumor implanted in nude mice; assay type: in vivo; conditions: for tumor volume: 200 ug Etomoxir, 2.5 mM 2-Deoxy-D-glucose
Excerpt: Tumor implantation. Mice were purchased from the Animal Production Program of National Cancer Institute, Frederick, Md. The animals used were Athymic Ncr-nu/nu (strain code 01B74). HL60 MDR cells were harvested and reconstituted at 1 million cells per 100 microliters of phosphate buffered saline. One million tumor cells per injection site were implanted subcutaneously on two sites of the animal's back. Treatments began at exactly seven days post tumor implantation. Tumor size/volume was monitored twice weekly using measurement calipers, with the formula Tumor Volume=π×(short diameter)^2×(long diameter)/6.
Mice experiments with fatty acid metabolism and glucose metabolism inhibitors. Fatty acid metabolism inhibitors were exemplified by etomoxir at 200 micrograms/day. Glucose metabolism inhibitors were exemplified by 2-deoxy-D-glucose at 2.5 mM in 100 microliters daily. The combination was administered daily, etomoxir at 200 micrograms and 2-deoxy-D-glucose at 2.5 mM in 100 microliters. All drugs were administered intra-peritoneally. Fluorouracil, at 20 mg per kilogram mouse, was injected intra-peritoneally once a week
HL60 MDR human leukemia cells were cultured and implanted in nude mice as described above under “Materials and Methods”. The mice were given 200 ug of Etomoxir, 2.5 mM 2-Deoxy-D-glucose, or both 200 ug of Etomoxir and 2.5 mM 2-Deoxy-D-glucose given daily by IP injection. Treatment began exactly one week after tumor implantation.
Mice were purchased from National Cancer Institute, Animal Production Program (Frederick, Md.). The animals used were Athymic Ncr-nu/nu (Strain code 01B74). HL60 MDR cells were harvested and reconstituted at 1 million cells per 100 microliters of phosphate buffered saline. One million tumor cells/per injection site were implanted subcutaneously on two sites of the animal's back. Treatments began at exactly seven days post tumor implantation. Tumor size/volume was monitored twice weekly using measurement calipers with the formula for Tumor Volume=π(short diameter)^2(long diameter)/(divided by )6. […]

[1] = tested on: human leukemia HL60 cells; assay: DCFDA staining, HL60; assay type: cell-based; conditions: HL60, 24 hours of incubation, FIG. 14
Experimental: Flow Cytometry. Cells were harvested, counted, and resuspended at 10^6 cells/100 μl of PBS containing 2.5% fetal calf serum in preparation for flow cytometric analysis. Cells were stained for intracellular H202 using 6-carboxy-2′,7′-dichlorodihydrofluorescein diacetate (DCF-DA, Molecular Probes, Eugene, Oreg.). Briefly, cells were incubated at 37° with 1 mM DCF-DA for 20 minutes, washed twice in PBS containing 2.5% fetal calf serum and analyzed flow cytometrically. Mitochondrial membrane potential was assessed using Mitotracker Red (CM-H2XROS, Molecular Probes, Eugene, Oreg.). The cells were resuspended in PBS containing 2.5% fetal calf serum containing a final concentration of 0.5 micromolar Mitotracker dye. The cells were incubated at 37° for 20 minutes, washed twice in PBS containing 2.5% fetal calf serum and analyzed flow cytometrically. Data were acquired on a Coulter Elite Epics or Excel flow cytometer (Coulter, Hialeah, Fla.) and analyzed with CellQuest software, (Becton Dickinson, San Jose, Calif.). […] Each sample population was classified for cell size (forward scatter) and complexity (side scatter), gated on a population of interest and evaluated using 5,000 cells. […]
The effects of etomoxir on human leukemia HL60 cells was determined. […]

[2] = tested on: drug sensitive L1210 cells; assay: cell-surface Fas expression by flow cytometry, L1210; assay type: cell-based
Experimental: Cell Surface Staining. Non-permeabilized cells were stained with antibodies to the cell surface receptors Fas (CD95) (Pharmingen) or with antibodies to uncoupling proteins (anti-UCP2 antibody) (Alpha Diagnostic International). Antibodies for both the isotype control and actual stain were added to the cell suspension, mixed, and then placed on ice for and incubation of 25 minutes in the dark. Subsequently the cells were centrifuged at 300×g for 5 minutes and the supernatant removed. The cells were washed one time with 100 μL of PBS/2.5% FBS and then transferred into flow cyotmetric tubes containing 500 μL of PBS/2.5% FBS for analysis.
Geometric Mean Fluorescence. When analyzing data on Cell Quest software, a geometric mean value will be given for each histogram plotted. Once the stained sample was plotted against the control (isotype or unstained), geometric mean fluorescence values were obtained for both histogram peaks. The stained control sample value was subtracted from sample to identify the actual fluorescence of the stained sample over that of the control.
Drug sensitive L1210 cells and drug resistant L1210/DDP cells were cultured with etomoxir for 24 hours (Tx indicates treatment with etomoxir). The level of cell-surface Fas was determined using fluorochrome conjugated anti-Fas antibodies and flow cytometry. The Fas levels are measured relative to a control for staining artifacts. […]

In the case of `CCOC(=O)C1(CCCCCCOc2ccc(Cl)cc2)CO1` (centres unmarked) [etomoxir, 2-(6-(4-chlorophenoxy)-hexyl)-oxirane-2-carboxylic acid ethyl ester], the tumor volume (HL60 MDR tumor; Day 7, daily IP from one week after implantation) is reported as 36 mm^3, the tumor volume (HL60 MDR tumor; Day 9, daily IP) is reported as 71.73 mm^3 and the tumor volume (HL60 MDR tumor; Day 15, daily IP) is reported as 261.35 mm^3. The tumor volume (HL60 MDR tumor; Day 21, daily IP) was 895.09 mm^3, the “effect on tumor growth” value (HL60 MDR tumor; HL60 MDR in nude mice, 21 day period, single agent) was “increase in tumor growth” and the “reactive oxygen intermediates, DCFDA staining” value [1] was “increases in reactive oxygen intermediates”. The “cell-surface Fas expression” value ([2]; L1210, cultured with etomoxir for 24 hours) was “significant increases in cell surface Fas” and the “Fas expression, combination with methotrexate” value ([2]; L1210, etomoxir with methotrexate, FIG. 8) was “increases the methotrexate-induced increases in Fas”.

Source: patent US8293240B2, “Method of treating drug-resistant cancer” (The Regents of the University of Colorado, priority 2004, dated 2012)
